Read-outs that look alike come from different tables or passages of the source.
Assays:
CFU-GM = conditions: 80 μg/kg s.c.
Experimental: (§1) Five healthy human volunteers having initial white blood cell counts of 4,500–7,500 cells/mm^3 were used in the study. […] Blood samples were obtained via catheter prior to the dose, and at various times up to 24 hours after dosing.
(§2) All progenitor cell results are based on the scoring of 3 culture plates per assay per point.
(§3) For the progenitor cell numbers and cycling status, the numbers of CFU-GM, BFU-E and CFU-GEMM in methylcellulose cultures by stimulation of the cells with 1 Unit (U)/ml recombinant human (rhu) erythropoietin, 100 U/ml rhu granulocyte-macrophage colony stimulating factor (GM-CSF), 100 U/ml rhu interleukin-3 (IL-3) and 50 ng/ml rhu steel factor (SLF=stem cell factor (SCF)). The CFU-GM were also evaluated in agar cultures stimulated with 100 U/ml rhu GM-CSF and 50 ng/ml rhu SLF. For both types of assays, colonies were scored after 14 day incubation in a humidified atmosphere with 5% CO2 and lowered (5%) O2 tension. Cell cycling status of progenitors was measured using a high specific activity tritiated thymidine kill technique as previously described (Broxmeyer, H. E., et al., Exp. Hematol. (1989) 17:455–459).

[1] = test system: granulocyte macrophage (CFU-GM), erythroid (BFU-E), and multipotential (CFU-GEMM) progenitor cells
Experimental: as §1, §2, §3

CXCR4 chemokine receptor = CXCR4 chemokine receptor (Homo sapiens, UniProt P61073); conditions: Gerlach, et al., J.Biol. Chem. (2001); cited from earlier work
[2] = test system: circulating CD34+ progenitor/stem cells; conditions: single dose of 80 μg/kg; 6 hour time point; Phase 1 study (Liles, et al.); cited from earlier work
nucleated cells = conditions: T = 3 h; average of 5 donors; 80 μg/kg s.c.
progenitor cells = conditions: AMD3100 5 mg/Kg s.c. + MIP-1α 5 μg I.V., 11 hours after rhu G-CSF or saline, 1 hour prior to assessing the blood
Experimental: Groups of mice were randomized to receive control diluent (saline) or G-CSF at a dose of 2.5 μg per mouse, twice a day, for two days via s.c. injection. […] One hour later, the mice were sacrificed and the number of progenitor cells per mL of blood were measured.

[3] = test system: rats with ligated left coronary artery; conditions: administered within hours after induction of cardiac ischemia, with or without rhG-CSF
Experimental: Adult rats are anesthetized and a thoracotomy is performed. The descending branch of the left coronary artery is ligated and not reperfused. […] Control rats are not treated with the reagents. The animals are monitored at one-week intervals by echocardiography and MRI. The experiment is terminated at 2, 6 to 12 weeks post-surgery. On the day of sacrifice, the hemodynamic functions are analyzed for left ventricle-end diastolic pressure, left ventricle-developed pressure and the rate of rise and fall of left ventricle pressure. The heart is then arrested in diastole and perfuised via the abdominal aorta to flush residual blood from the vascular network of the myocardium. This is followed by perfusion of the heart with 10% formalin. Several slices are made through the fixed heart and these are embedded in paraffin and sections. The sections are stained and analyzed by light microscopy to determine the size of the infarct in the treated and control animals. Tissue sections from hearts taken at 2 weeks after surgery are stained with antibodies specific for immature, developing myocyte and blood vessel proteins and analyzed by confocal microscopy. The immunohistochemical analysis involves the identification of transcription factors and surface markers expressed in early stages of myocyte development.

WBC = conditions: single dose of 80 μg/kg; Phase 1 study (Liles, et al.); cited from earlier work
[4] = test system: progenitors in DNA synthesis (S) phase; conditions: prior to and 1, 3, 6, 9 and 24 hours after injection
Experimental: For the progenitor cell numbers and cycling status, the numbers of CFU-GM, BFU-E and CFU-GEMM in methylcellulose cultures by stimulation of the cells with 1 Unit (U)/ml recombinant human (rhu) erythropoietin, 100 U/ml rhu granulocyte-macrophage colony stimulating factor (GM-CSF), 100 U/ml rhu interleukin-3 (IL-3) and 50 ng/ml rhu steel factor (SLF=stem cell factor (SCF)). […] For both types of assays, colonies were scored after 14 day incubation in a humidified atmosphere with 5% CO2 and lowered (5%) O2 tension. Cell cycling status of progenitors was measured using a high specific activity tritiated thymidine kill technique as previously described (Broxmeyer, H. E., et al., Exp. Hematol. (1989) 17:455–459).

CXCR4 chemokine receptor, sequence (P61073 whole entry): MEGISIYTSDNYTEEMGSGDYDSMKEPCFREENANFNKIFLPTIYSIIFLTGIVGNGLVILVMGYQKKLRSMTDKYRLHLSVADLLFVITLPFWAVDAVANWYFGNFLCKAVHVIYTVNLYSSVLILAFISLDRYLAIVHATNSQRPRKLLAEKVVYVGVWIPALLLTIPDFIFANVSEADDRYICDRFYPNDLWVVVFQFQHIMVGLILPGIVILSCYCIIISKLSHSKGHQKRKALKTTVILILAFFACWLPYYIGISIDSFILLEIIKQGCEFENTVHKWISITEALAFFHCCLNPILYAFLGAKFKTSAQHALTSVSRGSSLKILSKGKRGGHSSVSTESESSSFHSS

c1cc(CN2CCCNCCNCCCNCC2)ccc1CN1CCCNCCNCCCNCC1 [AMD3100, 1,1′-[1,4-phenylene-bis(methylene)]-bis-1,4,8,11-tetraazacyclotetradecane]
CFU-GM agar culture fold change from T=0 (CFU-GM; P4, T = 24 h): 1.30 fold | CFU-GM agar culture fold change from T=0 (CFU-GM; P5, T = 3 h): 6.40 fold | CFU-GM agar culture fold change from T=0 (CFU-GM; P5, T = 24 h): 2.20 fold | CFU-GEMM methylcellulose culture fold change from T=0 ([1]; P1, T = 1 h, 80 μg/kg s.c.): 2.07 fold | CFU-GEMM methylcellulose culture fold change from T=0 ([1]; P1, T = 24 h, 80 μg/kg s.c.): 1.12 fold | CFU-GM methylcellulose culture fold change from T=0 ([1]; P1, T = 24 h, 80 μg/kg s.c.): 1.10 fold | BFU-E methylcellulose culture fold change from T=0 ([1]; P2, T = 1 h, 80 μg/kg s.c.): 1.48 fold | BFU-E methylcellulose culture fold change from T=0 ([1]; P3, T = 1 h, 80 μg/kg s.c.): 2.30 fold | CFU-GM methylcellulose culture fold change from T=0 ([1]; P3, T = 1 h, 80 μg/kg s.c.): 3.70 fold | CFU-GEMM methylcellulose culture fold change from T=0 ([1]; P3, T = 9 h, 80 μg/kg s.c.): 2.47 fold | CFU-GEMM methylcellulose culture fold change from T=0 ([1]; P3, T = 24 h, 80 μg/kg s.c.): 0.69 fold | BFU-E methylcellulose culture fold change from T=0 ([1]; P4, T = 3 h, 80 μg/kg s.c.): 2.60 fold | CFU-GEMM methylcellulose culture fold change from T=0 ([1]; P4, T = 6 h, 80 μg/kg s.c.): 9.10 fold | BFU-E methylcellulose culture fold change from T=0 ([1]; P4, T = 24 h, 80 μg/kg s.c.): 0.79 fold | CFU-GEMM methylcellulose culture fold change from T=0 ([1]; P4, T = 24 h, 80 μg/kg s.c.): 0.98 fold | CFU-GEMM methylcellulose culture fold change from T=0 ([1]; P5, T = 3 h, 80 μg/kg s.c.): 4.43 fold | CFU-GM methylcellulose culture fold change from T=0 ([1]; P5, T = 3 h, 80 μg/kg s.c.): 8.40 fold | BFU-E methylcellulose culture % CHG ([1]; T = 1 h, mean of five donors, 80 μg/kg s.c.): 98.9% | time of maximal fold increases in circulating levels of progenitor cells ([1]; after injection, all five donors): 6 h | action at the CXCR4 chemokine receptor (CXCR4 chemokine receptor): antagonist | peak increase in circulating CD34+ progenitor/stem cells [2]: 6 fold | PBL-LD nucleated cellularity Fold Change Compared to TIME = 0, MEAN (nucleated cells): 2.86 fold | PBL-US nucleated cellularity Fold Change Compared to TIME = 0, MEAN (nucleated cells): 2.80 fold | mobilization of progenitor cells in combination with mu MIP-1α (progenitor cells): additive to greater than additive | cardiac remodeling and scar formation [3]: block to cardiac remodeling and scar formation | mobilization of bone marrow stem cells [3]: mobilizes bone marrow stem cells rapidly | regeneration of myocardium [3]: regeneration of the dead myocardium | WBC count (WBC): 17,000 / μl | cycling state of progenitors [4]: slow or non-cycling state

— patent US7169750B2, “Methods to mobilize progenitor/stem cells” (Anormed, Inc., priority 2001, dated 2007)
